# ChEMBL document CHEMBL1201862, “PubChem BioAssay data set” (2004)
# Active and inactive are the calls of the source.
# Key:
# Streptococcus [1] = test: GAS UMAA2166 growth inhibition – luminescence, BacTiterGlo, counter-screen for streptokinase expression inhibitor project, dose response (AID 1915); format: functional, organism-based;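 further: potency for reduction of bacterial viability or growth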
# Streptococcus [2] = test: Luminescence Microorganism-Based Dose Response Follow up to Identify Compounds Cytotoxic to Streptococcus. [Related pubchem assays: 1677 (Project Summary), 1915, 1914, 1902 (Retest at Dose), 1900 (Counter Screen), 1662 (Primary HTS)]; format: functional, organism-based
# Streptokinase A = biological target: T1, Streptokinase A (Streptococcus pyogenes serotype M1, UniProt P10520); test: viability-normalized secreted streptokinase activity reduction – plasminogen activation absorbance, OD405, dose response (AID 1914); format: functional, Streptococcus pyogenes M1 GAS;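 further: secreted streptokinase activity via plasminogen activation per viability signal from cell pellet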
# T1 sequence (P10520 whole entry): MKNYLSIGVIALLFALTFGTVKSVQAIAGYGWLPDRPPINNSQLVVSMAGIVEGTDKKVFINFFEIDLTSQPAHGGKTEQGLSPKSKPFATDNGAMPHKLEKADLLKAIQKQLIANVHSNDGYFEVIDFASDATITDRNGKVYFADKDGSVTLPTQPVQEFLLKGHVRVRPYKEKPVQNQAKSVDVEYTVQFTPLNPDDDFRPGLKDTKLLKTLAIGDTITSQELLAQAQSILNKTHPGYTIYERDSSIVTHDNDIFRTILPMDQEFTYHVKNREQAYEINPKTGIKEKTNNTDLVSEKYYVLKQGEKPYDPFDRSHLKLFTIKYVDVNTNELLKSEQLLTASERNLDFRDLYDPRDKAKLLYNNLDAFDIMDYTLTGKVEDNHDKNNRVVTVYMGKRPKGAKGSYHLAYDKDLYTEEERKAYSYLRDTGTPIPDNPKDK
# [3] = system: Streptococcus sp. 'group A'; test: Streptococcus pyogenes SK(-)GAS viability under kanamycin – luminescence, BacTiterGlo, confirmation, counter-screen for streptokinase expression inhibitor project, dose response (AID 1900); format: functional, organism-based
# [4] = COV362 cell viability loss – plate reader, dry powder, SA12, cytotoxicity control for PAX8 inhibitor project, dose response (AID 743144); format: functional, cell-based
# [5] = COV434 cell viability loss – plate reader, dry powder, SA7, cytotoxicity control for PAX8 inhibitor project, dose response (AID 743145); format: functional, cell-based
# [6] = IGROV1 cell killing – plate reader, dry powder samples, PAX8 inhibitor project, dose response (AID 743043); format: functional, cell-based; conditions: IGROV-1
# [7] = OVCAR4 cell viability loss – plate reader, dry powder, SA11, cytotoxicity control for PAX8 inhibitor project, dose response (AID 743150); format: functional, cell-based; conditions: OVCAR-4
# BJ [8] = test: BJ-TERT fibroblast viability loss – cell-based, RAS-independent, luminescence, dose response (AID 1933); format: functional; conditions: Homo sapiens
# [9] = PAX8-dependent cell viability loss – plate reader, dry powder, dose response (AID 743049); format: functional, cell-based
# [10] = alpha-synuclein stem-loop luciferase translation blockers – H4 neuroglioma cells, luminescence, confirmation (AID 1988); format: functional, cell-based
# [11] = PAX5 cellular inhibition readout – cell-based, plate reader, dry powder samples, selectivity assay for PAX8 inhibitor project, dose response (AID 743047); format: functional;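 further: HEK293 cells carrying a Pax5 driven CD19 promoter luciferase reporter; potency of inhibitors that lower reporter luminescence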
# Paired box protein Pax-8 = Paired box protein Pax-8 (Homo sapiens, UniProt Q06710); test: PAX8 transcriptional activity inhibition in RMG-I – RMG-I cells, luciferase, cherry-pick, dose response (AID 687027); format: functional, cell-based;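 further: luciferase reporter driven by Pax8 target thyroperoxidase promoter measured by SteadyGlo luminescence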
# Phospholipase A2 = Phospholipase A2 (Homo sapiens, UniProt P04054); test: phospholipase A2 activity inhibition – biochemical, set 2, counter-screen for ATG4B inhibitor project, dose response (AID 588586); format: functional
# BJ [12] = test: cells; format: functional, cell-based; conditions: Homo sapiens
# [13] = DRD fibroblast viability loss – cell-based, non-viral oncogenic, luminescence, dose response (AID 1934); format: functional; conditions: Homo sapiens
# [14] = A2780 cell killing – plate reader, dry powder samples, cytotoxicity control, dose response (AID 743046); format: functional, cell-based
# [15] = OVCAR-3 cell viability loss – plate reader, dry powder samples, PAX8 inhibitor project, dose response (AID 743044); format: functional, cell-based
# [16] = HEK-293T viability loss after treatment – luminescence, T-cell screen hits, cytotoxicity control for TCR NF-kB inhibitor project, dose response (AID 489026); format: functional, cell-based;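 further: cells exposed to compound about 14 hours before the viability readout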
# BJ [17] = test: BJ-TERT-LT-ST fibroblast viability loss – cell-based, RAS-independent, luminescence, dose response (AID 1935); format: functional; conditions: Homo sapiens;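 further: BJ fibroblasts immortalized with TERT plus LT and ST oncogenes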
# Cysteine protease ATG4B = biological target: T2, Cysteine protease ATG4B (Homo sapiens, UniProt Q9Y4P1); test: autophagin-1 cysteine protease inhibition – biochemical, fluorescence, set 2, dose response (AID 588584); format: functional
# T2 sequence (Q9Y4P1 whole entry): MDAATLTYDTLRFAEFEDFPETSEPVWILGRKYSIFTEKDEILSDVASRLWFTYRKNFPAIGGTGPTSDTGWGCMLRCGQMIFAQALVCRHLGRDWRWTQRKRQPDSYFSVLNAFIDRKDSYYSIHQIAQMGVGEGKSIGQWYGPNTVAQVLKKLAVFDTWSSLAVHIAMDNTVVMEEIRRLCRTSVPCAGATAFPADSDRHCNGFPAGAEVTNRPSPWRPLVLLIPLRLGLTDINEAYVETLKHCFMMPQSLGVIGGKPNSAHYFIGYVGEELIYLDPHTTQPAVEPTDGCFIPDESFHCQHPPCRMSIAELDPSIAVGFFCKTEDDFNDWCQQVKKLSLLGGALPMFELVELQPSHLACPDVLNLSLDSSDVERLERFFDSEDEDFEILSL
# [18] = inhibitors acting on PAX2 in cells – cell-based, plate reader, dry powder samples, selectivity assay for PAX8 inhibitor project, dose response (AID 743048); format: functional;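 further: HEK293 cells carrying a WT1 promoter luciferase reporter driven by expressed Pax2; potency is for inhibition of Pax2 driven reporter signal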
# [19] = Luminescence-based dose response cell-based high throughput screening assay for cytotoxic compounds using the IEC-6 intestinal epithelial cell line. [Related pubchem assays: 1858 (Summary AID.), 1825 (Counterscreen.), 1907 (Confirmation screen.)]; format: functional
# [20] = alpha-synuclein stem-loop translation blockers – luminescence, H4 neuroglioblastoma cells, dose confirmation, confirmation (AID 2454); format: functional, cell-based;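 further: H4 neuroglioblastoma cells carrying an alpha-synuclein 5'UTR luciferase reporter; potency for inhibition of the luciferase signal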
# [21] = OV-90 cell viability loss – plate reader, dry powder, SA8, PAX8 inhibitor project, dose response (AID 743149); format: functional, cell-based
# [22] = toxicity toward immortalized ovarian surface epithelium – cell-based, plate reader, dry powder samples, cytotoxicity control for PAX8 inhibitor project, dose response (AID 743045); format: functional
# cells = format: functional, cell-based
# [23] = luciferase reporter signal reduction – luminescence, H4-C neuroglioblastoma cells, dose response (AID 2458); format: functional, cell-based;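 further: H4 neuroglioblastoma cells stably carrying a luciferase reporter gene fusion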
# [24] = biological target: T3, Neuropeptides B/W receptor type 1 (Homo sapiens, UniProt P48145); test: human NPBW1 receptor blockade, IC50 – cell-based, fluorescence, dose response, late-stage follow-up (AID 463251); format: functional
# T3 sequence (P48145 whole entry): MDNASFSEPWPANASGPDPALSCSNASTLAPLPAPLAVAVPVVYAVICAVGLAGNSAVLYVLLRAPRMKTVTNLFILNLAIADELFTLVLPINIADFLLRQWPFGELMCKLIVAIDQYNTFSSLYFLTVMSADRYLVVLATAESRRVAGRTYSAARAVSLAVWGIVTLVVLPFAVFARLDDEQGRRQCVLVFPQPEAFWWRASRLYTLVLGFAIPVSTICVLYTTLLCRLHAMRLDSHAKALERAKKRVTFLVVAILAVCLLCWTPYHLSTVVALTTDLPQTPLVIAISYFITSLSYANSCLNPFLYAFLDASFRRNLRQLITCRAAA
# [25] = biological target: Melanin-concentrating hormone receptor 1 (Homo sapiens, UniProt Q99705); test: Late-stage fluorescence-based counterscreen for antagonists of the G-protein coupled receptor 7 (GPR7): cell-based dose response assay to identify antagonists of the melanin-concentrating hormone receptor 1 (MCHR1). [Related pubchem assays (depositor defined):AID1861, AID1880, AID1952, AID2148, AID2251, AID2257, AID485339]; format: functional;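 further: stimulated with 30 nM MCH peptide agonist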
# [26] = biological target: NACHT, LRR and PYD domains-containing protein 3 (Homo sapiens, UniProt Q96P20); test: NALP3 inhibitors in yeast, dose response, luminescent (AID 488799); format: functional
# Sequence of NACHT, LRR and PYD domains-containing protein 3 (Q96P20 whole entry, the tested form may be a part): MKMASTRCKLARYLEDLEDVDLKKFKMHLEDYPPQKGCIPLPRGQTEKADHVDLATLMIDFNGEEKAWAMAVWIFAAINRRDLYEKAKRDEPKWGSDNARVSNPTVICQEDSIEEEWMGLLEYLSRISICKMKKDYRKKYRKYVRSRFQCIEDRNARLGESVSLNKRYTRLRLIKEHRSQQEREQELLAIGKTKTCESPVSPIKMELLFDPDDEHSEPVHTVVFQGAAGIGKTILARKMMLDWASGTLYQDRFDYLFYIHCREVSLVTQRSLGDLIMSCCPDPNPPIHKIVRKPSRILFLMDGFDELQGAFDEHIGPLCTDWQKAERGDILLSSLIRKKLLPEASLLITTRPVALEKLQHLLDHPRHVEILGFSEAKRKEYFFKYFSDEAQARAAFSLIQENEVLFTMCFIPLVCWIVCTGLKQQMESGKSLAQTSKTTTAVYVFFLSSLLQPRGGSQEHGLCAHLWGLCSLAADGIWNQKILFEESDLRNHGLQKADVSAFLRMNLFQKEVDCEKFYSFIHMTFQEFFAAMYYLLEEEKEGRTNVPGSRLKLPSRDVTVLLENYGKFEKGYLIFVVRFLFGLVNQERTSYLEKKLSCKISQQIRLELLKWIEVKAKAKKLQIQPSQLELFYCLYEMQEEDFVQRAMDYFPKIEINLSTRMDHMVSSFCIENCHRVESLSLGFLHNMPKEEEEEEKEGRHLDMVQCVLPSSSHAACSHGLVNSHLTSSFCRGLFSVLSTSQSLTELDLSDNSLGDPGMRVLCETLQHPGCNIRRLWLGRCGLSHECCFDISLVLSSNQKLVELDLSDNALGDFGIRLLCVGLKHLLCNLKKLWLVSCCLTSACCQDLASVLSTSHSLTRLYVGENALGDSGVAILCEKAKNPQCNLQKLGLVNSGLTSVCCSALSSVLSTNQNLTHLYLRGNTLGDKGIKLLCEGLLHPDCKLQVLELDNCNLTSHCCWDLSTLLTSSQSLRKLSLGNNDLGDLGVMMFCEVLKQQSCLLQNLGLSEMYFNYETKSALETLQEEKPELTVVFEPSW
# Sequence of Melanin-concentrating hormone receptor 1 (Q99705 whole entry, the tested form may be a part): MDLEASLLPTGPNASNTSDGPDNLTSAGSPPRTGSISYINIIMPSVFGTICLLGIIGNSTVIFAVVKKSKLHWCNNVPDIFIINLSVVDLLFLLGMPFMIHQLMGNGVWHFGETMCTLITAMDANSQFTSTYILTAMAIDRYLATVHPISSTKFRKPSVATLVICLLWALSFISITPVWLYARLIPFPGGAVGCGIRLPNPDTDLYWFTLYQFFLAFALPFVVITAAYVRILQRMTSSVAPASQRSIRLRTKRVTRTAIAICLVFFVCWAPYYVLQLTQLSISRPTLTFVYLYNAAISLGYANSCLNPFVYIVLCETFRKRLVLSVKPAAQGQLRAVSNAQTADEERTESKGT
# Sequence of Phospholipase A2 (P04054 whole entry): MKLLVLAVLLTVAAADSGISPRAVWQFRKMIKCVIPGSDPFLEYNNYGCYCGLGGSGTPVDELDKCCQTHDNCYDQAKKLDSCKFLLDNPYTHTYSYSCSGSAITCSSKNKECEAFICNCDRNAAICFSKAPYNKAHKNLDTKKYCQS
# Sequence of Paired box protein Pax-8 (Q06710 whole entry): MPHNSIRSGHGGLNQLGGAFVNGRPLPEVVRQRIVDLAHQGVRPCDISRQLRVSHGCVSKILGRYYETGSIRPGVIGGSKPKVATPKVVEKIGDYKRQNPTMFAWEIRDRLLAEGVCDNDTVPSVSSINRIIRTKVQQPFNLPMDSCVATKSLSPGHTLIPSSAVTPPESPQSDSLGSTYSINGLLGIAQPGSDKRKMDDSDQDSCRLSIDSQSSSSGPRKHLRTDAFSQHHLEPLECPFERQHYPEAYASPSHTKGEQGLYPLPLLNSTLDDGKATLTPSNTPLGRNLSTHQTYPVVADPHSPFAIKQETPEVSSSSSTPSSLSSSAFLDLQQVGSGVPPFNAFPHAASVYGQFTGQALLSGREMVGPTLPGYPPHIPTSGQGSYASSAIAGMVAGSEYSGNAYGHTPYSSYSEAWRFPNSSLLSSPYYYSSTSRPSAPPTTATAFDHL
smiles,measurement,setting,value
FC(F)(F)c1cc(-c2ccco2)nc(NCc2ccc(Cl)cc2)n1,EC50,Streptococcus [1],> 150000 nM (not active)
same,EC50,Streptococcus [2],9490 nM (active)
same,EC50,Streptokinase A,9320 nM (active)
same,EC50,[3],8270 nM (active)
CCCC1=Nc2cc(C(=O)NCCCOCC)ccc2Sc2ccccc21,AC50,[4],1420 nM (active)
same,AC50,[5],1300 nM (active)
same,AC50,[6],7990 nM (active)
same,AC50,[7],885 nM (active)
same,EC50,BJ [8],586 nM (inconclusive)
same,AC50,[9],7230 nM (active)
same,EC50,[10],< 100 nM (active)
same,AC50,[11],1480 nM (active)
same,AC50,Paired box protein Pax-8,1740 nM (active)
same,IC50,Phospholipase A2,48900 nM (inactive)
same,EC50,BJ [12],863 nM (inconclusive)
same,EC50,[13],740 nM (inconclusive)
same,AC50,[14],5660 nM (active)
same,AC50,[15],5370 nM (active)
same,IC50,[16],> 80000 nM (inactive)
same,EC50,BJ [17],607 nM (inconclusive)
same,IC50,Cysteine protease ATG4B,49000 nM (inactive)
same,AC50,[18],64000 nM (active)
same,IC50,[19],389 nM (active)
same,EC50,[20],836 nM (active)
same,AC50,[21],1360 nM (active)
same,AC50,[22],1220 nM (active)
same,EC50,cells,985 nM (active)
same,EC50,[23],592 nM (active)
Cc1ccc(-n2ncc(Cl)c(Oc3ccc(OC(F)(F)F)cc3)c2=O)cc1,IC50,[24],880 nM (active)
same,IC50,[25],2900 nM (active)
O=C(NCCCc1ccccc1)c1c(O)nc2sccn2c1=O,IC50,[26],9610 nM (active)
